# According to US4731109A, “Herbicidal 2-haloacetanilides” (Monsanto Company, priority 1982, dated 1988):
# Legend:
# Quackgrass [1] = assay: Greenhouse pre-emergence GR15/GR85 selectivity test; format: in vivo
# Yellow Nutsedge = assay: as above; format: in vivo
# corn = assay: as above; format: in vivo
# Summary of the method: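 Active ingredient mixed into cover soil over seeded pans (pre-emergence soil incorporation), initial overhead irrigation equal to 0.64 cm rainfall, then subirrigation. Scored about 2-3 weeks after seeding; GR15 (crop) and GR85 (weed) rates in kg/ha, selectivity factor = crop GR15 / weed GR85.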
# rape = assay: as above; format: in vivo; conditions: Table XV
# From the text: (§1) A good grade of top soil is placed in aluminum pans and compacted to a depth of three-eighths to one-half inch from the top of the pan. On the top of the soil is placed a number of seeds or vegetative propagules of various plant species. The soil required to level fill the pans after seeding or adding vegetative propagules is weighed into a pan. The soil and a known amount of the active ingredient applied in a solvent or as a wettable powder suspension are thoroughly mixed, and used to cover the prepared pans. After treatment, the pans are given an initial overhead irrigation of eater, equivalent to one-fourth inch (0.64 cm) rainfall, then watered by subirrigation as need to give adequate moisture for germination and growth. As an alternative procedure, the overhead irrigation may be omitted. Observations are made about 2-3 weeks after seeding and treatment.
# In the discussion and tables of data below, reference is made to herbicide application rates symbolized as "GR15 " and "GR85 "; these rates are given in kilograms per hectare (kg/ha) which are convertible into pounds per acre (lbs/A) by dividing the kg/ha rate by 1.12.
# (§2) A further guide to the effectiveness of a chemical as a selective herbicide is the "selectivity factor" ("SF") for a herbicide in given crops and weeds. The selectivity factor is a measure of the relative degree of crop safety and weed injury and is expressed in terms of the GR15 /GR85 ratio, i.e., the GR15 rate for the crop divided by the GR85 rate for the weed, both rates in kg/ha (lb/A). In the tables below, selectivity factors are shown in parenthesis following the GR85 rate for each weed; the symbol "NS" indicates "non-selective". Marginal or undetermined selectivity is indicated by a dash (--).
# Additionally, pre-emergence herbicidal data from other tests have established that compounds according to this invention also selectively suppress quackgrass, yellow nutsedge and/or other weeds in one or more of the crops cotton, peanuts, bush beans and/or rape. For example, in Table VI are presented data showing the herbicidal selectivity of the compounds of Examples 1 and 2 against quackgrass in rape and snap beans. Unless otherwise noted; greenhouse tests in Table VI and in other tables below involved herbicide treatments by soil incorporation and an initial overhead irrigation followed by subirrigation as described above.
# In another greenhouse test, the compounds of Examples 3-5, 9 and 10 were tested for their herbicidal efficacy against a variety of resistant annual and perennial weeds in rape.
# Texas panicum = assay: as above; format: in vivo; conditions: Table XVI
# From the text: as §1, with “After treatment, the pans are given an initial overhead irrigation of eater, equivalent to one-fourth inch (0.64 cm) rainfall, then watered by subirrigation as need to give adequate moisture for germination and growth.” left out
# as §2
# (§3) Unless otherwise noted; greenhouse tests in Table VI and in other tables below involved herbicide treatments by soil incorporation and an initial overhead irrigation followed by subirrigation as described above.
# alexandergrass = assay: as above; format: in vivo; conditions: Table XV; for selectivity factor (GR15/GR85): in rape
# From the text: as §1, with “After treatment, the pans are given an initial overhead irrigation of eater, equivalent to one-fourth inch (0.64 cm) rainfall, then watered by subirrigation as need to give adequate moisture for germination and growth.” left out
# as §2, §3
# fall panicum = assay: as above; format: in vivo; conditions: Table XVI
# From the text: as §1, with “After treatment, the pans are given an initial overhead irrigation of eater, equivalent to one-fourth inch (0.64 cm) rainfall, then watered by subirrigation as need to give adequate moisture for germination and growth.” left out
# as §2, §3
# itchgrass = assay: as above; format: in vivo; conditions: Table XVI
# From the text: as §1, with “After treatment, the pans are given an initial overhead irrigation of eater, equivalent to one-fourth inch (0.64 cm) rainfall, then watered by subirrigation as need to give adequate moisture for germination and growth.” left out
# as §2, §3
# red rice = assay: as above; format: in vivo; conditions: Table XVI
# From the text: as §1, with “After treatment, the pans are given an initial overhead irrigation of eater, equivalent to one-fourth inch (0.64 cm) rainfall, then watered by subirrigation as need to give adequate moisture for germination and growth.” left out
# as §2, §3
# seedling johnsongrass = assay: as above; format: in vivo; conditions: Table XVI
# From the text: as §1, with “After treatment, the pans are given an initial overhead irrigation of eater, equivalent to one-fourth inch (0.64 cm) rainfall, then watered by subirrigation as need to give adequate moisture for germination and growth.” left out
# as §2, §3
# shattercane = assay: as above; format: in vivo; conditions: Table XVI
# From the text: as §1, with “After treatment, the pans are given an initial overhead irrigation of eater, equivalent to one-fourth inch (0.64 cm) rainfall, then watered by subirrigation as need to give adequate moisture for germination and growth.” left out
# as §2, §3
# wild proso millet = assay: as above; format: in vivo, wild proso millet (panicum milicaeum); conditions: Table XVI
# From the text: as §1, with “After treatment, the pans are given an initial overhead irrigation of eater, equivalent to one-fourth inch (0.64 cm) rainfall, then watered by subirrigation as need to give adequate moisture for germination and growth.” left out
# as §2, §3
# Quackgrass [2] = assay: Herbicidal effect in a variety of soil types; format: in vivo; conditions: for selectivity factor (GR15/GR85): in soybeans
# From the text: The herbicide treatments were by soil incorporation with seeds planted 0.375 in (0.95 cm) deep, with 0.25 in (0.64 cm overhead irrigation. Observations were made about three weeks after treatment. Selectivity factors are shown in parenthesis.
# soybeans = assay: Herbicidal effect in a variety of soil types; format: in vivo
# [3] = quackgrass in corn, Table IV, Replicate #2
# [4] = quackgrass in soybeans, Table IV, Replicate #2
# [5] = yellow nutsedge in corn, Table IV, Replicate #2
# [6] = yellow nutsedge in soybeans, Table IV, Replicate #2
# [7] = Drummer silty clay, Table XVII C
# [8] = Wabash silty clay, Table XVII C
# [9] = Wabash silty clay, Table XVII B
smiles,measurement,setting,value
"CCOCN(C(=O)CCl)c1c(CC)cccc1C(F)(F)F [Example 9, N--(ethoxymethyl)-2'-trifluoromethyl-6'-ethyl-2-chloroacetanilide]",GR85,"Quackgrass [1]; Table IV, Replicate #2",0.20 Kg/Ha
same,GR85,Quackgrass [1]; Table XIII,0.36 Kg/Ha
same,selectivity against quackgrass in wheat,Quackgrass [1]; in wheat,non-selective
same,selectivity factor (GR15/GR85),Quackgrass [1]; [3],11
same,selectivity factor (GR15/GR85),"Quackgrass [1]; quackgrass in corn, Table XIII",4.7
same,selectivity factor (GR15/GR85),Quackgrass [1]; [4],10.5
same,selectivity factor (GR15/GR85),"Quackgrass [1]; quackgrass in soybeans, Table XIII",4.7
same,GR85,"Yellow Nutsedge; Table IV, Replicate #2",0.17 Kg/Ha
same,GR85,Yellow Nutsedge; Table XII,0.21 Kg/Ha
same,GR85,Yellow Nutsedge; in cotton,0.47 kg/ha
same,S.F. (GR15/GR85),Yellow Nutsedge; in cotton,1.5
same,selectivity with respect to yellow nutsedge in rice,Yellow Nutsedge; in rice,non-selective
same,selectivity factor (GR15/GR85),Yellow Nutsedge; [5],13
same,selectivity factor (GR15/GR85),"Yellow Nutsedge; yellow nutsedge in corn, Table XII",12
same,selectivity factor (GR15/GR85),"Yellow Nutsedge; yellow nutsedge in cotton, Table XII",12
same,selectivity factor (GR15/GR85),Yellow Nutsedge; [6],12.5
same,selectivity factor (GR15/GR85),"Yellow Nutsedge; yellow nutsedge in soybeans, Table XII",9.5
same,GR15,"corn; Table IV, Replicate #2",2.2 Kg/Ha
same,GR15,corn; Table XII,2.5 Kg/Ha
same,GR15,corn; Table XIII,1.7 Kg/Ha
same,GR15 Rate,rape,0.98 Kg/Ha
same,GR85 Rate,Texas panicum,0.56 Kg/Ha
same,selectivity factor (GR15/GR85),Texas panicum; in lima beans,1.3
same,selectivity factor (GR15/GR85),Texas panicum; in peanuts,1.6
same,GR85 Rate,alexandergrass,0.19 Kg/Ha
same,selectivity factor (GR15/GR85),alexandergrass,5.2
same,GR85 Rate,fall panicum,0.13 Kg/Ha
same,selectivity factor (GR15/GR85),fall panicum; in lima beans,5.8
same,selectivity factor (GR15/GR85),fall panicum; in peanuts,6.9
same,GR85 Rate,itchgrass,0.53 Kg/Ha
same,selectivity factor (GR15/GR85),itchgrass; in lima beans,1.4
same,selectivity factor (GR15/GR85),itchgrass; in peanuts,1.7
same,GR85 Rate,red rice,0.42 Kg/Ha
same,selectivity factor (GR15/GR85),red rice; in lima beans,1.8
same,selectivity factor (GR15/GR85),red rice; in peanuts,2.1
same,GR85 Rate,seedling johnsongrass,0.25 Kg/Ha
same,selectivity factor (GR15/GR85),seedling johnsongrass; in lima beans,3
same,selectivity factor (GR15/GR85),seedling johnsongrass; in peanuts,3.6
same,GR85 Rate,shattercane,0.21 Kg/Ha
same,selectivity factor (GR15/GR85),shattercane; in lima beans,3.6
same,selectivity factor (GR15/GR85),shattercane; in peanuts,4.3
same,GR85 Rate,wild proso millet,0.56 Kg/Ha
same,selectivity factor (GR15/GR85),wild proso millet; in lima beans,1.3
same,selectivity factor (GR15/GR85),wild proso millet; in peanuts,1.6
same,GR85,Quackgrass [2]; [7],0.17 Kg/Ha
same,GR85,"Quackgrass [2]; Florida muck, Table XVII C",0.73 Kg/Ha
same,GR85,"Quackgrass [2]; Ray silt loam, Table XVII C",0.13 Kg/Ha
same,GR85,"Quackgrass [2]; Sarpy silty clay, Table XVII C",0.13 Kg/Ha
same,GR85,Quackgrass [2]; [8],0.24 Kg/Ha
same,selectivity factor (GR15/GR85),Quackgrass [2]; [7],> 13
same,selectivity factor (GR15/GR85),"Quackgrass [2]; Florida muck, Table XVII C",> 3
same,selectivity factor (GR15/GR85),"Quackgrass [2]; Ray silt loam, Table XVII C",> 16.5
same,selectivity factor (GR15/GR85),"Quackgrass [2]; Sarpy silty clay, Table XVII C",> 16.5
same,selectivity factor (GR15/GR85),Quackgrass [2]; [8],12.5
same,GR15,soybeans; [7],> 2.2 Kg/Ha
same,GR15,"soybeans; Florida muck, Table XVII C",> 2.2 Kg/Ha
same,GR15,"soybeans; Ray silt loam, Table XVII C",> 2.2 Kg/Ha
same,GR15,"soybeans; Sarpy silty clay, Table XVII C",> 2.2 Kg/Ha
same,GR15,soybeans; [8],3.0 Kg/Ha
"CCCOCN(C(=O)CCl)c1c(C)cccc1C(F)(F)F [Example 3, N--(n-propoxymethyl)-2'-trifluoromethyl-6'-methyl-2-chloroacetanilide]",GR85,"Quackgrass [1]; Table IV, Replicate #1",0.12 Kg/Ha
same,GR85,"Quackgrass [1]; Table IV, Replicate #2",0.13 Kg/Ha
same,selectivity factor (GR15/GR85),"Quackgrass [1]; quackgrass in corn, Table IV, Replicate #1",6.5
same,selectivity factor (GR15/GR85),Quackgrass [1]; [3],5.5
same,selectivity factor (GR15/GR85),"Quackgrass [1]; quackgrass in soybeans, Table IV, Replicate #1",9
same,selectivity factor (GR15/GR85),Quackgrass [1]; [4],8.5
same,GR85,"Yellow Nutsedge; Table IV, Replicate #1",0.11 Kg/Ha
same,GR85,"Yellow Nutsedge; Table IV, Replicate #2",0.21 Kg/Ha
same,selectivity factor (GR15/GR85),"Yellow Nutsedge; yellow nutsedge in corn, Table IV, Replicate #1",7
same,selectivity factor (GR15/GR85),Yellow Nutsedge; [5],3.5
same,selectivity factor (GR15/GR85),"Yellow Nutsedge; yellow nutsedge in soybeans, Table IV, Replicate #1",10
same,selectivity factor (GR15/GR85),Yellow Nutsedge; [6],5
same,GR15,"corn; Table IV, Replicate #1",0.78 Kg/Ha
same,GR15,"corn; Table IV, Replicate #2",0.73 Kg/Ha
same,GR15 Rate,rape,0.90 Kg/Ha
same,GR85 Rate,Texas panicum,0.43 Kg/Ha
same,selectivity factor (GR15/GR85),Texas panicum; in lima beans,1.1
same,selectivity factor (GR15/GR85),Texas panicum; in peanuts,> 2.6
same,GR85 Rate,alexandergrass,0.14 Kg/Ha
same,selectivity factor (GR15/GR85),alexandergrass,6.3
same,GR85 Rate,fall panicum,0.08 Kg/Ha
same,selectivity factor (GR15/GR85),fall panicum; in lima beans,6
same,selectivity factor (GR15/GR85),fall panicum; in peanuts,> 14
same,GR85 Rate,itchgrass,0.51 Kg/Ha
same,selectivity factor (GR15/GR85),itchgrass; in lima beans,NS (non-selective)
same,selectivity factor (GR15/GR85),itchgrass; in peanuts,> 2.2
same,GR85 Rate,red rice,0.37 Kg/Ha
same,selectivity factor (GR15/GR85),red rice; in lima beans,1.3
same,selectivity factor (GR15/GR85),red rice; in peanuts,> 3
same,GR85 Rate,seedling johnsongrass,0.23 Kg/Ha
same,selectivity factor (GR15/GR85),seedling johnsongrass; in lima beans,2.1
same,selectivity factor (GR15/GR85),seedling johnsongrass; in peanuts,> 4.9
same,GR85 Rate,shattercane,0.11 Kg/Ha
same,selectivity factor (GR15/GR85),shattercane; in lima beans,4.5
same,selectivity factor (GR15/GR85),shattercane; in peanuts,> 10.2
same,GR85 Rate,wild proso millet,0.27 Kg/Ha
same,selectivity factor (GR15/GR85),wild proso millet; in lima beans,1.8
same,selectivity factor (GR15/GR85),wild proso millet; in peanuts,> 4.2
same,GR85,"Quackgrass [2]; Florida muck, Table XVII B",1.1 Kg/Ha
same,GR85,"Quackgrass [2]; Florida sand, Table XVII B",0.72 Kg/Ha
same,GR85,Quackgrass [2]; [9],0.22 Kg/Ha
same,selectivity factor (GR15/GR85),"Quackgrass [2]; Florida muck, Table XVII B",> 2
same,selectivity factor (GR15/GR85),"Quackgrass [2]; Florida sand, Table XVII B",2.5
same,selectivity factor (GR15/GR85),Quackgrass [2]; [9],9
same,GR15,"soybeans; Florida muck, Table XVII B",> 2.2 Kg/Ha
same,GR15,"soybeans; Florida sand, Table XVII B",2.0 Kg/Ha
same,GR15,soybeans; [9],2.0 Kg/Ha
